Source: patent publication US9359338B2, “Cyclopropanecarboxamido-substitute aromatic compounds as anti-tumor agents” (Crown Bioscience Inc. (Taiwan), priority 2012, dated 2016)
pIC50: −log10 of the molar value. Like-named read-outs stand apart in the source and are kept apart here.

Key:
[1] = molecular target: KDR kinase (790-1356 AA) (Homo sapiens (Human), UniProt P35968); assay: Inhibitory activity at KDR kinase (Lance Ultra Ulight-TK assay); assay type: biochemical
Procedure: Inhibitory Activity of Compounds at KDR Kinase
• [Experimental method]: Use Lance@Ultra Ulight™-TK assay kit from PerKinElmer to evaluate the inhibitory activity of compounds at KDR kinase. • [Instrument]: PerKinElmer's ENVISION plate reader • [Materials]: Optiplate-384 well plate (PerKinElmer), kinase buffer (50 mM Hepes pH7.5, 0.25 mM EGTA, 2 mM DTT, 0.01% Tween 20, 10 mM Mg^2+, 0.5 mM Mn^2+), KDR kinase (790-1356 AA, Crown Bioscience), KDR kinase substrate (PerKinElmer catalogue # TRF0127-M), Lance@Eu-W1024-anti-phosphotyrosine (PT66) (PerKinElmer, catalogue #AD0068), ATP (Invitrogen), DMSO (Sigma, catalogue #34869), purified water (Millipore, type: Milli-Q). • [Study conditions]: Mix KDR (final concentration: 20 nM) and compound (final DMSO: 0.5%), pre-incubate for 20 min at 30° C.; then add ATP (final concentration: 90 μM) and the substrate (final concentration […]). React for 2 hrs at 30° C. After the reaction, add antibody and reaction for 60 min at 30° C. Read the plate (615 nm, 665 nm), calculate the ratio of the value at 665 nm vs 615 nm and analyze the data. • [Samples]: Compounds in the examples and Sorafenib (positive control) • [Data Analysis]: Use CBIS data analysis software to calculate IC50 values

[2] = system: PLC-PRF-5 cells; assay: Inhibition of proliferation of PLC-PRF-5 cells (ATPlite); assay type: cell-based; settings: read-out: PLC-PRF-5 cell proliferation IC50
Text: Inhibitory Activity of Compounds to the Proliferation of PLC-PRF-5 Cells
• [experimental Method]: Use PerKinElmer's ATPlite™ Luminescence ATP Detection Assay System to evaluate the inhibitory activity of compounds to the proliferation of PLC-PRF-5 cells. • [Instruments]: ENVISION plate reader (PerKinElmer) and centrifuge (Thermo Scientific, Sorvall ST16R) • [material]: PLC-PRF-5 cells (ATCC), 96-well plate (Nunc, #165305), DMEM medium (Gibco, #11965-092), PBS (Invitrogen, #10010023), fetal bovine serum (Gibco, #16000044), DMSO (Sigma, #D2650), ATPlite™ Luminescence ATP Detection Assay System (PerkinElmer, #6016949), purified water (Millipore, type: Milli-Q). • [Protocol]: Grow PLC-PRF-5 cells in DMEM supplemented with 10% FBS. When the cells reach 80% confluency, collect cells by trypsinization and centrifugation at 800 rpm for 3 min. Resuspend cells with appropriate volume of medium and count cell numbers. Adjust cell concentration to 50000 cells/mL, and split 160 μL cell suspension per well into 96-well plates. Transfer the plates into cell culture incubator (37° C., 5% CO2) and incubate cells for 2 hrs. Prepare compound serial dilutions in culture medium with total 8 compound concentrations at 3-fold serial dilutions (the final top concentration starts from 30 μM). Dispense 40 μL of each test compound dilution into corresponding wells with DMSO at 0.3% final concentration. Continue incubating cells in cell culture incubator for additional 96 hrs at 37° C., 5% CO2. Discard culture medium, and wash cells once with PBS. Add 50 μL cell lysis buffer per well and shake plates for 5 min at room temperature to ensure complete lysis of cells. Then add 50 μL of substrate solution and shake plates for 1 min at room temperature. Allow the plates to incubate at room temperature for 5 min, followed by recording the luminescence signals using Envision, and subsequent data analysis. • [Samples]: Compounds in the examples and Sorafenib (positive control) • [Data analysis]: Use CBIS data analysis software to calculate IC50 values

[3] = system: pERK in MDA-MB-231 cells; assay: Inhibitory activity at pERK (In Cell Western, MDA-MB-231 cells); assay type: cell-based; settings: read-out: MDA-MB-231 pERK IC50
Procedure: Inhibitory Activity of Compounds at pERK
When the cells reach 80% confluency, collect cells by trypsinization and centrifugation at 800 rpm for 3 minutes. Resuspend cells with appropriate volume of medium and count cell numbers. Adjust cell concentration to 70000 cells/mL, and split 100 μL cell suspension per well into 96-well plates. Transfer the plates into cell culture incubator (37° C., 5% CO2) and incubate cells overnight. Discard the medium, wash with PBS once, Prepare compound serial dilutions in culture medium with total 8 compound concentrations at 3-fold serial dilutions (the final top concentration starts from 30 μM). Dispense 75 μL DMEM medium (with 0.1% BSA) and 25 μL of each test compound dilution into corresponding wells with DMSO at 0.3% final concentration. Continue incubating cells in cell culture incubator for additional 2 hrs at 37° C., 5% CO2. Discard culture medium, and wash cells once with PBS. Add 100 μL of 4% formaldehyde solution to each well and fix for 20 min. Discard the formaldehyde, then add 100 μL ice-cold 100% methanol at 4° C. for 20 min. Discard methanol, wash with PBS three times. Add to each well 100 μL of 2% BSA solution, seal for 30 min at room temperature. Discard the BSA solution, add to each well 50 μL of the 1st antibody solution (prepared with 2% BSA, 1:250 dilution), incubate at 4° C. overnight. Discard the 1^St antibody solution, wash with PBS four times. Add to each well […] the 2nd antibody solution (prepared with 1% BSA, 1:1000 dilution), incubate at room temperature for 1 hr. Discard the 2nd antibody solution, wash with PBS four times, add to each well 100 μL PI solution (1.5 μM), incubate at room temperature for 30 min. Use Acumen (TPP) to measure the fluorescence. • [Samples]: Compounds in the examples and sorafenib (positive control) • [Data Analysis]: Use CBIS data analysis software to calculate IC50 values

[4] = Homo sapiens, PLC-PRF-5, PLC-PRF-5 cells
[5] = Homo sapiens, MDA-MB-231, MDA-MB-231 cells

Chain of KDR kinase (790-1356 AA) (P35968 790-1356): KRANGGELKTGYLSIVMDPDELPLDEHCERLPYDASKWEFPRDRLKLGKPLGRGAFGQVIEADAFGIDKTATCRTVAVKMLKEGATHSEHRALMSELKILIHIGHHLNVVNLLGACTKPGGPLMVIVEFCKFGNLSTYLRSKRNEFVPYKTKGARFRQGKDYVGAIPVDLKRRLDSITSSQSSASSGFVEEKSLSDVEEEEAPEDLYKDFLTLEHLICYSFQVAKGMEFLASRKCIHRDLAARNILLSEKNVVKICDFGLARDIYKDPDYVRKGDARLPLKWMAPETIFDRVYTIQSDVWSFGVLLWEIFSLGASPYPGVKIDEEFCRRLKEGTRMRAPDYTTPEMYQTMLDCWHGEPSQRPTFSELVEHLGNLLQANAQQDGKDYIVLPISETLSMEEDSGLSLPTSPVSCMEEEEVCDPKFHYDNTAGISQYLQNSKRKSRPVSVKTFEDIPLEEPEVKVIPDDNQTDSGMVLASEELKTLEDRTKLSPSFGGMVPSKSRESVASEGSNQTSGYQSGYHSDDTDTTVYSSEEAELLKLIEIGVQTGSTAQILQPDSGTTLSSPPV

With `O=C(Nc1ccc(Cl)c(C(F)(F)F)c1)Nc1cc(Oc2cc(NC(=O)C3CC3)ncn2)ccc1F` [Exe. 002, N-[6-[3-[[4-chloro-3-(trifluoromethyl)phenyl]carbamoyl-amino]-4-fluoro-phenoxy]pyrimidin-4-yl]cyclopropanecarboxamide] the pIC50 [1] was 8.27, the pIC50 [2, 4] was 5.47 and the pIC50 [3, 5] was 7.81.

`Cc1cc(Oc2cc(NC(=O)C3CC3)ncn2)c(F)cc1NC(=O)Nc1ccc(Cl)c(C(F)(F)F)c1` [Exe. 003] showed a pIC50 [1] of 7.78, a pIC50 [2, 4] of 4.94 and a pIC50 [3, 5] of 7.06.

In the case of `O=C(Nc1cc(F)cc(Oc2cc(NC(=O)C3CC3)ncn2)c1)Nc1ccc(Cl)c(C(F)(F)F)c1` [Exe. 005], the pIC50 [1] was 7.57, the pIC50 [2, 4] was 5.22 and the pIC50 [3, 5] was 7.39.

`N#Cc1cc(NC(=O)Nc2ccc(Cl)c(C(F)(F)F)c2)ccc1Oc1cc(NC(=O)C2CC2)ncn1` [Exe. 006] gave a pIC50 [1] of 7.60, a pIC50 [2, 4] of 5.27 and a pIC50 [3, 5] of 6.55.

In the case of `Cc1nc(NC(=O)Nc2ccc(Cl)c(C(F)(F)F)c2)ccc1Oc1cc(NC(=O)C2CC2)ncn1` [Exe. 011], the pIC50 [1] was 7.87, the pIC50 [2, 4] was 4.71 and the pIC50 [3, 5] was 6.58.

Compound `O=C(Nc1cccc(Oc2cc(NC(=O)C3CC3)ncn2)c1)Nc1ccc(Cl)c(C(F)(F)F)c1` [Exe. 012] has a pIC50 [1] of 8.00, a pIC50 [2, 4] of 4.99 and a pIC50 [3, 5] of 7.15.

`O=C(Nc1ccc(F)c(Oc2cc(NC(=O)C3CC3)ncn2)c1)Nc1ccc(Cl)c(C(F)(F)F)c1` [Exe. 013] was tested, and the pIC50 [1] was 7.85, the pIC50 [2, 4] was 4.79 and the pIC50 [3, 5] was 7.30.

In the case of `Cc1ccc(Oc2cc(NC(=O)C3CC3)ncn2)cc1NC(=O)Nc1ccc(Cl)c(C(F)(F)F)c1` [Exe. 014], the pIC50 [1] was 8.15, the pIC50 [2, 4] was 5.06 and the pIC50 [3, 5] was 7.31.

`O=C(Nc1ccc(Oc2cc(NC(=O)C3CC3)ncn2)nc1)Nc1ccc(Cl)c(C(F)(F)F)c1` [Exe. 015] was tested, and the pIC50 [1] was 8.38, the pIC50 [2, 4] was 5.19 and the pIC50 [3, 5] was 7.03.

Work on `Cc1cc(Oc2cc(NC(=O)C3CC3)ncn2)ncc1NC(=O)Nc1ccc(Cl)c(C(F)(F)F)c1` [Exe. 016] yielded a pIC50 [1] of 8.03, a pIC50 [2, 4] of 4.70 and a pIC50 [3, 5] of 7.26.

`Cc1cc(Oc2ccnc(NC(=O)C3CC3)c2)ncc1NC(=O)Nc1ccc(Cl)c(C(F)(F)F)c1` [Exe. 018] showed a pIC50 [1] of 8.03, a pIC50 [2, 4] of 5.39 and a pIC50 [3, 5] of 8.34.

With `N#Cc1cc(NC(=O)Nc2ccc(Cl)c(C(F)(F)F)c2)ccc1Oc1ccnc(NC(=O)C2CC2)c1` [Exe. 026] the pIC50 [1] was 7.74, the pIC50 [2, 4] was 6.05 and the pIC50 [3, 5] was 7.41.

In the case of `O=C(Nc1ccc(Oc2ccnc(NC(=O)C3CC3)c2)c(F)c1)Nc1ccc(Cl)c(C(F)(F)F)c1` [Exe. 027], the pIC50 ([2]; PLC-PRF-5 cells) was 5.62 and the pIC50 ([3]; MDA-MB-231 cells) was 7.18.

`Cc1cc(Oc2cc(NC(=O)C3CC3)ncn2)ccc1NC(=O)Nc1cc(NC(C)C)cc(C(F)(F)F)c1` [Exe. 032, N-[6-[4-[[3-(isopropylamino)-5-(trifluoromethyl)phenyl]carbamoylamino]-3-methyl-phenoxy]pyrimidin-4-yl]cyclopropanecarboxamide] gave a pIC50 [1] of 7.59, a pIC50 [2, 4] of 4.70 and a pIC50 [3, 5] of 6.94.

`CC(F)(F)c1cncc(NC(=O)Nc2ccc(Oc3ccnc(NC(=O)C4CC4)c3)cc2F)c1` [Exe. 033] was tested, and the pIC50 [1] was 8.25, the pIC50 [2, 4] was 7.46 and the pIC50 [3, 5] was 8.30.

`CN1CCC(c2ccc(NC(=O)Nc3ccc(Oc4ccnc(NC(=O)C5CC5)c4)c(F)c3)cc2C(F)(F)F)CC1` [Exe. 036] was tested, and the pIC50 [1] was 7.81, the pIC50 [2, 4] was 5.62 and the pIC50 [3, 5] was 6.54.

In the case of `O=C(Nc1cc(OC2CCOC2)cc(C(F)(F)F)c1)Nc1ccc(Oc2ccnc(NC(=O)C3CC3)c2)c(F)c1` (centres unmarked) [Exe. 039], the pIC50 [1] was 7.85, the pIC50 [2, 4] was 6.30 and the pIC50 [3, 5] was 7.26.

`CN1CCC(C(=O)c2cc(NC(=O)Nc3ccc(Oc4ccnc(NC(=O)C5CC5)c4)c(F)c3)cc(C(F)(F)F)c2)CC1` [Exe. 040] gave a pIC50 [1] of 7.82, a pIC50 [2, 4] of 6.19 and a pIC50 [3, 5] of 6.87.

For `Nc1nnc(-c2cc(NC(=O)Nc3ccc(Oc4ccnc(NC(=O)C5CC5)c4)c(F)c3)cc(C(F)(F)F)c2)o1` [Exe. 042], the pIC50 [1] was 7.94, the pIC50 [2, 4] was 5.45 and the pIC50 [3, 5] was 7.03.

`COCC(=O)Nc1cc(NC(=O)Nc2ccc(Oc3ccnc(NC(=O)C4CC4)c3)c(F)c2)cc(C(F)(F)F)c1` [Exe. 043] gave a pIC50 [1] of 7.74, a pIC50 [2, 4] of 6.22 and a pIC50 [3, 5] of 7.52.

In the case of `CC(c1cc(NC(=O)Nc2ccc(Oc3ccnc(NC(=O)C4CC4)c3)c(F)c2)cc(C(F)(F)F)c1)N1CCN(C)CC1` (centres unmarked) [Exe. 045], the pIC50 [1] was 7.81, the pIC50 [2, 4] was 6.97 and the pIC50 [3, 5] was 7.40.

`O=C(Nc1cc(N2CCC(F)CC2)cc(C(F)(F)F)c1)Nc1ccc(Oc2ccnc(NC(=O)C3CC3)c2)c(F)c1` [Exe. 046] showed a pIC50 [1] of 7.78, a pIC50 [2, 4] of 6.19 and a pIC50 [3, 5] of 7.24.

In the case of `O=C(Nc1cc(NC2CC2)cc(C(F)(F)F)c1)Nc1ccc(Oc2ccnc(NC(=O)C3CC3)c2)c(F)c1` [Exe. 049], the pIC50 [1] was 8.00, the pIC50 [2, 4] was 6.19 and the pIC50 [3, 5] was 7.29.

`CCOC(=O)C(C)(C)CNc1cc(NC(=O)Nc2ccc(Oc3ccnc(NC(=O)C4CC4)c3)c(F)c2)cc(C(F)(F)F)c1` [Exe. 050] showed a pIC50 [1] of 7.89, a pIC50 [2, 4] of 5.65 and a pIC50 [3, 5] of 6.96.

Compound `O=C(Nc1cc(N2CCN(CCF)CC2)cc(C(F)(F)F)c1)Nc1ccc(Oc2ccnc(NC(=O)C3CC3)c2)c(F)c1` [Exe. 053] has a pIC50 [1] of 7.89, a pIC50 [2, 4] of 6.16 and a pIC50 [3, 5] of 7.19.

`CC(C)N1CCN(c2cc(NC(=O)Nc3ccc(Oc4ccnc(NC(=O)C5CC5)c4)c(F)c3)cc(C(F)(F)F)c2)CC1` [Exe. 054] gave a pIC50 [1] of 7.82, a pIC50 [2, 4] of 6.47 and a pIC50 [3, 5] of 7.01.

Compound `CCN1CCN(c2cc(NC(=O)Nc3ccc(Oc4ccnc(NC(=O)C5CC5)c4)c(F)c3)cc(C(F)(F)F)c2)CC1` [Exe. 055] has a pIC50 [1] of 7.84, a pIC50 [2, 4] of 6.38 and a pIC50 [3, 5] of 6.55.

For `CC(c1cc(NC(=O)Nc2ccc(Oc3ccnc(NC(=O)C4CC4)c3)c(F)c2)cc(C(F)(F)F)c1)N1CCNCC1` (centres unmarked) [Exe. 067, N-[4-[2-fluoro-4-[[3-(1-piperazin-1-ylethyl)-5-(trifluoromethyl)phenyl]carbamoylamino]phenoxy]-2-pyridyl]cyclopropanecarboxamide], the pIC50 [2, 4] was 6.63 and the pIC50 [3, 5] was 7.12.

Compound `Cc1cc(Oc2cc(NC(=O)C3CC3)ncn2)ccc1NC(=O)Nc1cc(C2CCN(C)CC2)cc(C(F)(F)F)c1` [Exe. 073] has a pIC50 [2, 4] of 5.53.
